US11413266B2, “Use of cannabinoids in the treatment of inflammatory skin diseases” (GW Pharma Limited, priority 2015, dated 2022)

Key:
[1] = system: MCP-2; assay: MCP-2 ELISA in supernatants of poly-(I:C)-stimulated HaCaT cells; assay type: cell-based, human; details: poly-(I:C)-stimulated HaCaT; for MCP-2 protein levels: all tested at 5, 10 and 20 μM, data not shown; for MCP-2 production: 6 h
[2] = system: IL6; assay: PolyIC-induced IL6 release in HPV-Ker keratinocytes, ELISA; assay type: cell-based, human; details: HPV-KER cells
[3] = system: IL6; assay: PolyIC-induced IL6 release in NHEK keratinocytes, ELISA; assay type: cell-based, human; details: NHEKs; for TLR3-activation induced augmented release of IL6: higher concentration; for PolyIC-induced elevated release of IL6: concentration not singled out (0.3 and 3 μM tested)
[4] = system: IL8; assay: PolyIC-induced IL8 release in NHEK keratinocytes, ELISA; assay type: cell-based, human; details: NHEKs; for TLR3-activation induced augmented release of IL8: higher concentration
[5] = system: human epidermal keratinocytes; assay: Summary score, TLR3-induced inflammation model (microbial infection-induced dermatitis); assay type: cell-based
[6] = system: IL6; assay: UVB-induced IL6 mRNA expression in HaCaT keratinocytes, RT-qPCR; assay type: cell-based, human
[7] = system: IL6; assay: UVB-induced IL6 release in HaCaT keratinocytes, ELISA; assay type: cell-based, human
[8] = system: IL8; assay: UVB-induced IL8 mRNA expression in HaCaT keratinocytes, RT-qPCR; assay type: cell-based, human
[9] = system: IL8; assay: UVB-induced IL8 release in HaCaT keratinocytes, ELISA; assay type: cell-based, human
[10] = system: IL6; assay: UVB-induced IL6 release in NHEK keratinocytes, ELISA; assay type: cell-based, human; details: NHEKs; for UVB-upregulated expression of IL6: only at given (mostly lower) concentrations; for UVB-upregulated IL6: higher concentrations
[11] = system: human epidermal keratinocytes; assay: Summary score, UVB-induced inflammation model (solar dermatitis); assay type: cell-based
[12] = system: HPV-Ker keratinocytes; assay: Summary score, SEB/TSLP-induced inflammation model (atopic dermatitis); assay type: cell-based, human; details: for SCORE: sum of +1 anti-inflammatory, 0 no effect, −1 pro-inflammatory, Table 3; for Overall action in the SEB/TSLP-induced inflammation model: conclusion on Table 3
[13] = system: IL8; assay: SEB/TSLP-induced IL8 release in HPV-Ker keratinocytes, ELISA; assay type: cell-based, human; details: lower concentrations
[14] = system: IL8; assay: UVB-induced IL8 release in NHEK keratinocytes, ELISA; assay type: cell-based, human; details: NHEKs; only at given (mostly lower) concentrations
[15] = system: ACD in 2,4-dinitrofluorobenzene (DNFB)-treated wild-type mice; details: Karsak et al. 2007, cited from earlier work
[16] = concentration not singled out (0.3 and 3 μM tested)
[17] = 0.3 μM, sum of +1 anti-inflammatory, 0 no effect, −1 pro-inflammatory, Table 1
[18] = 3 μM, sum of +1 anti-inflammatory, 0 no effect, −1 pro-inflammatory, Table 1
[19] = 0.3 μM, sum of +1 anti-inflammatory, 0 no effect, −1 pro-inflammatory, Table 2
[20] = 3 μM, sum of +1 anti-inflammatory, 0 no effect, −1 pro-inflammatory, Table 2

With `CCCCCc1cc(O)c(C/C=C(\C)CCC=C(C)C)c(O)c1C(=O)O` [CBGA, cannabigerolic acid] the MCP-2 protein levels [1] was “No effect”.

In the case of `CCCc1cc(O)c(C/C=C(\C)CCC=C(C)C)c(O)c1` [CBGV, Cannabigervarin], the “PolyIC-induced IL6 levels” value ([2]; 0.3 μM) is reported as “did not affect”, the “TLR3-activation induced augmented release of IL6” value ([2]; 3 μM) is reported as “significantly further augmented” and the “TLR3-activation induced augmented release of IL6” value [3] is reported as “significantly further augmented”. The “PolyIC-induced elevated release of IL8” value [4, 16] was “did not affect”, the SCORE [5, 17] was 5 and the SCORE [5, 18] was 5. For the same molecule, the “UVB-upregulated IL6 (RT-qPCR)” value ([6]; 0.3 μM) was “anti-inflammatory effects”, the “UVB-upregulated IL6 (RT-qPCR)” value ([6]; 3 μM) was “anti-inflammatory effects” and the “UVB-upregulated IL6 (ELISA)” value ([7]; 0.3 μM) was “pro-inflammatory effects”. For the same molecule, the “UVB-upregulated IL6 (ELISA)” value ([7]; 3 μM) was “anti-inflammatory effects”, the “UVB-upregulated IL8 (RT-qPCR)” value ([8]; 0.3 μM) was “pro-inflammatory effects” and the “UVB-upregulated IL8 (RT-qPCR)” value ([8]; 3 μM) was “pro-inflammatory effects”. The “UVB-upregulated IL8 (ELISA)” value ([9]; 0.3 μM) was “pro-inflammatory effects”, the “UVB-upregulated IL8 (ELISA)” value ([9]; 3 μM) was “pro-inflammatory effects” and the “UVB-upregulated expression of IL6” value [10] was “significantly suppress”. It also gave an SCORE [11, 19] of −1, an SCORE [11, 20] of 2 and an SCORE ([12]; 0.3 μM) of −1. For the same molecule, the SCORE ([12]; 3 μM) was 1 and the MCP-2 production ([1]; 10 μM) was “able to reduce”.

In the case of `C=C(C)[C@@H]1CCC(C)=C[C@H]1c1c(O)cc(CCC)cc1O` [CBDV, Cannabidivarin], the “PolyIC-induced elevated release of IL6” value [3] is reported as “did not affect”, the “TLR3-activation induced augmented release of IL8” value [4] is reported as “significantly further augmented” and the SCORE ([5]; 0.3 µM) is reported as 7. For the same molecule, the SCORE ([5]; 3 µM) was 5, the “UVB-upregulated IL6 (RT-qPCR)” value ([6]; 0.3 μM) was “anti-inflammatory effects” and the “UVB-upregulated IL6 (RT-qPCR)” value ([6]; 3 μM) was “anti-inflammatory effects”. The “UVB-upregulated IL6 (ELISA)” value ([7]; 3 μM) was “anti-inflammatory effects”, the “UVB-upregulated IL8 (RT-qPCR)” value ([8]; 3 μM) was “anti-inflammatory effects” and the “UVB-upregulated IL8 (ELISA)” value ([9]; 3 μM) was “anti-inflammatory effects”. For the same molecule, the “UVB-upregulated expression of IL6” value [10] was “significantly suppress”, the SCORE ([11]; 0.3 µM) was 2 and the SCORE ([11]; 3 µM) was 5. The “SEB/TSLP-induced up-regulation of IL8 release” value (“SEB/TSLP-induced up-regulation” below) [13] was “did not induce any significant effect”, the SCORE ([12]; 0.3 μM) was 0 and the SCORE ([12]; 3 μM) was 1. The “Overall action in the SEB/TSLP-induced inflammation model” value [12] was “most effective”.

With `CCCCCc1cc(O)c2c(c1)OC(C)(CCC=C(C)C)C=C2` (stereo not drawn) [CBC, cannabichromene] the MCP-2 production ([1]; 5 μM) was “no effect”, the MCP-2 production ([1]; 10 μM) was “no effect” and the MCP-2 production ([1]; 20 μM) was “able to reduce”.

In the case of `C=C(C)[C@@H]1CCC(C)=C[C@H]1c1c(O)cc(CCC)c(C(=O)O)c1O` [CBDVA, cannabidivarinic acid], the MCP-2 protein levels [1] is reported as “No effect”.

For `CCCc1cc2c(c(O)c1C(=O)O)[C@@H]1C=C(C)CC[C@H]1C(C)(C)O2` [THCVA, tetrahydrocannabivarinic acid], the MCP-2 protein levels [1] was “No effect”.

For `C=C(C)[C@@H]1CCC(C)=C[C@H]1c1c(O)cc(CCCCC)c(C(=O)O)c1O` [CBDA, Cannabidiolic acid], the “PolyIC-induced elevated release of IL6” value [3] was “dose-dependent suppression”, the “PolyIC-induced elevated release of IL8” value [4, 16] was “dose-dependent suppression” and the SCORE [5, 17] was 7. For the same molecule, the SCORE [5, 18] was 10, the “UVB-upregulated IL6 (RT-qPCR)” value ([6]; 0.3 μM) was “pro-inflammatory effects” and the “UVB-upregulated IL6 (ELISA)” value ([7]; 0.3 μM) was “pro-inflammatory effects”. For the same molecule, the “UVB-upregulated IL8 (RT-qPCR)” value ([8]; 0.3 μM) was “pro-inflammatory effects”, the “UVB-upregulated IL8 (RT-qPCR)” value ([8]; 3 μM) was “pro-inflammatory effects” and the “UVB-upregulated IL8 (ELISA)” value ([9]; 0.3 μM) was “pro-inflammatory effects”. For the same molecule, the “UVB-upregulated IL8 (ELISA)” value ([9]; 3 μM) was “pro-inflammatory effects”, the “UVB-upregulated expression of IL8” value [14] was “significantly suppress” and the SCORE [11, 19] was 1. The SCORE [11, 20] was −1, the “SEB/TSLP-induced up-regulation” value [13] was “did not induce any significant effect” and the SCORE ([12]; 0.3 μM) was 0. For the same molecule, the SCORE ([12]; 3 μM) was 1, the “Overall action in the SEB/TSLP-induced inflammation model” value [12] was “most effective” and the MCP-2 protein levels [1] was “No effect”.

In the case of `CCCCCc1cc(O)c(C/C=C(\C)CCC=C(C)C)c(O)c1` [CBG, Cannabigerol], the “PolyIC-induced elevated release of IL6” value [3] is reported as “dose-dependent suppression”, the “PolyIC-induced elevated release of IL8” value [4, 16] is reported as “dose-dependent suppression” and the SCORE [5, 17] is reported as 5. For the same molecule, the SCORE [5, 18] was 9, the “UVB-upregulated IL6 (RT-qPCR)” value ([6]; 0.3 μM) was “anti-inflammatory effects” and the “UVB-upregulated IL6 (RT-qPCR)” value ([6]; 3 μM) was “anti-inflammatory effects”. The “UVB-upregulated IL6 (ELISA)” value ([7]; 3 μM) was “anti-inflammatory effects”, the “UVB-upregulated IL8 (ELISA)” value ([9]; 3 μM) was “pro-inflammatory effects” and the “UVB-upregulated IL6” value [10] was “pro-inflammatory effects”. For the same molecule, the “UVB-upregulated expression of IL8” value [14] was “significantly suppress”, the SCORE [11, 19] was 2 and the SCORE [11, 20] was 3. For the same molecule, the “SEB/TSLP-induced up-regulation” value [13] was “did not induce any significant effect”, the SCORE ([12]; 0.3 μM) was 0 and the SCORE ([12]; 3 μM) was 1. The “Overall action in the SEB/TSLP-induced inflammation model” value [12] was “most effective”, the MCP-2 production ([1]; 5 μM) was “no effect” and the MCP-2 production ([1]; 10 μM) was “no effect”. The MCP-2 production ([1]; 20 μM) was “able to reduce”.

With `CCCc1cc(O)c2c(c1)OC(C)(C)[C@@H]1CCC(C)=C[C@@H]21` [THCV, Tetrahydrocannabivarin] the “TLR3-activation induced augmented release of IL6” value [3] was “significantly further augmented”, the “PolyIC-induced IL6 level” value ([3]; low concentration) was “did not affect” and the “TLR3-activation induced augmented release of IL8” value [4] was “did not affect”. The “PolyIC-induced elevated release of IL8” value ([4]; low concentration) was “significantly suppressed”, the SCORE [5, 17] was 7 and the SCORE [5, 18] was 7. For the same molecule, the “UVB-upregulated IL6 (RT-qPCR)” value ([6]; 3 μM) was “anti-inflammatory effects”, the “UVB-upregulated IL6 (ELISA)” value ([7]; 0.3 μM) was “anti-inflammatory effects” and the “UVB-upregulated IL6 (ELISA)” value ([7]; 3 μM) was “pro-inflammatory effects”. For the same molecule, the “UVB-upregulated IL8 (RT-qPCR)” value ([8]; 0.3 μM) was “anti-inflammatory effects”, the “UVB-upregulated IL8 (ELISA)” value ([9]; 0.3 μM) was “anti-inflammatory effects” and the “UVB-upregulated IL8 (ELISA)” value ([9]; 3 μM) was “pro-inflammatory effects”. The “UVB-upregulated IL6” value [10] was “pro-inflammatory effects”, the SCORE [11, 19] was 4 and the SCORE [11, 20] was 0. For the same molecule, the SCORE ([12]; 0.3 μM) was −1, the SCORE ([12]; 3 μM) was 1 and the MCP-2 production ([1]; 5 μM) was “no effect”. The MCP-2 production ([1]; 10 μM) was “able to reduce” and the MCP-2 production ([1]; 20 μM) was “able to reduce”.

In the case of `CCCCCc1cc(O)c2c(c1)OC(C)(C)[C@@H]1CCC(C)=C[C@@H]21` [THC, tetrahydrocannabinol], the ACD ([15]; subcutaneous and topical application) is listed as “attenuated”, the ear swelling ([15]; vs untreated mice) is listed as “significantly decreased” and the “recruitment of Gr-1 positive granulocytes” value ([15]; vs untreated mice) is listed as “reduced”.
